The record followed here is patent US11648254B2 (Kumquat Biosciences Inc., priority 2021, dated 2023).

One test addresses SOS1 (Homo sapiens (Human), UniProt Q07889). Kind of test: Ras-SOS interaction assay (HTRF). In kind it is biochemical. A general note: TR-FRET usually uses a lanthanide donor and a delayed reading to cut background.
Test [1] deals with MIA PaCa-2 cells (K-Ras G12C). The test is described as follows: Ras-SOS cellular growth inhibition assay (CellTiter-Glo, 3D). In kind it is cell-based. Particulars: Homo sapiens. The procedure, abridged: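 Growth read by CellTiter-Glo luminescence about 5 days after dosing with 3-fold dilutions (9 points), added one day post-seeding. Cells: MIA PaCa-2, 3D culture on ultra-low-attachment surface, medium DMEM/Ham's F12 plus 10% FCS and 2.5% horse serum; IC50 by four-parameter fit.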
For orientation: ATP-based viability assays read luminescence as a measure of living cells.

Test [2] concerns NCI-H1975 cells (EGFR T790M L858R). The test is described as follows: EGFR-SOS cellular inhibition assay (CellTiter-Glo, 3D). Format: cell-based. Particulars: Homo sapiens.
The mark [3] stands for this setting: K-RasG13D utilized, read-out: IC50 inhibition of SOS.
[4] abbreviates: K-RasG13D, read-out: IC50 value against SOS1.
Where [5] appears, read: MIA PaCa-2, 120 h, MIA PaCa-2, 3D proliferation, about 5 days, read-out: Bio-Cell-Prolif-3D (MiaPaca2 IC50).
The mark [6] stands for this setting: MIA PaCa-2, MIA PaCa-2, read-out: IC50 in inhibiting MIA PaCa-2 cell growth.
The mark [7] stands for this setting: 120 h, NCI-H1975, 3D proliferation, about 5 days, read-out: Bio-Cell-Prolif-3D (H1975 IC50).
[8] abbreviates: NCI-H1975, EGFR T790M L858R, read-out: IC50 in inhibiting growth of NCI-H1975 cell line.

Read-outs that look alike come from different tables or passages of the source.

SOS1, sequence (Q07889 564-1049): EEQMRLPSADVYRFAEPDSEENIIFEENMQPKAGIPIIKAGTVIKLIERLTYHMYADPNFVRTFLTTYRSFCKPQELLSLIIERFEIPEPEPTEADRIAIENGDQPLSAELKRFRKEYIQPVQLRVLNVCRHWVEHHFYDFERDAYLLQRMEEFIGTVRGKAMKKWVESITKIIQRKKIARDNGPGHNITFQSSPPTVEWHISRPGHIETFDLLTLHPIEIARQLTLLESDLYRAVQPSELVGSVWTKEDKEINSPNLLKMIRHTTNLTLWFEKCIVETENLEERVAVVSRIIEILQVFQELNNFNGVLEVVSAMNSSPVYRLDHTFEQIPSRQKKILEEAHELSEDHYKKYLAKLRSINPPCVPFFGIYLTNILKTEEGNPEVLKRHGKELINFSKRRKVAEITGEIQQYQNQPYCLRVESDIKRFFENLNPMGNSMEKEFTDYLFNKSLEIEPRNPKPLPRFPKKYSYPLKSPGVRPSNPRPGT

Turning to `COc1nc2nc(C)nc(N[C@H](C)c3cccc(C(F)(F)F)c3F)c2cc1N1CCN(C(=O)CO)CC1` [Compound 313, (R)-1-(4-(4-((1-(2-fluoro-3-(trifluoromethyl)phenyl)ethyl)amino)-7-methoxy-2-methylpyrido[2,3-d]pyrimidin-6-yl)piperazin-1-yl)-2-hydroxyethan-1-one], the IC50 – broadly, the concentration that inhibits the measured activity by half – was below 100 nM on SOS1 (setting [3]); below 50 nM on SOS1 (setting [4]); at most 1000 nM in test [1] (setting [5]); below 500 nM in test [1] (setting [6]); at most 1000 nM in test [2] (setting [7]); below 500 nM in test [2] (setting [8]).
As to `COc1nc2ncnc(N[C@H](C)c3cccc(C(F)(F)C4CCC(N(C)C)CC4)c3F)c2cc1C1CCS(=O)(=O)CC1` (stereo partly drawn) [Compound 289, (R)-4-(4-((1-(3-((4-(dimethylamino)cyclohexyl)difluoromethyl)-2-fluorophenyl)ethyl)amino)-7-methoxypyrido[2,3-d]pyrimidin-6-yl)tetrahydro-2H-thiopyran 1,1-dioxide], the IC50 on SOS1 (setting [3]) was below 100 nM; at SOS1 (setting [4]), below 50 nM; in test [1] (setting [5]), at most 1000 nM; in test [1] (setting [6]), below 500 nM; in test [2] (setting [7]), at most 1000 nM; in test [2] (setting [8]), below 500 nM.
With `COc1nc2ncnc(N[C@H](C)c3cccc(CC(F)F)c3F)c2cc1C1CCS(=O)(=O)CC1` [Compound 152, (R)-4-(4-((1-(3-(2,2-difluoroethyl)-2-fluorophenyl)ethyl)amino)-7-methoxypyrido[2,3-d]pyrimidin-6-yl)tetrahydro-2H-thiopyran 1,1-dioxide], the 50% inhibitory concentration (IC50) was below 100 nM at SOS1 (setting [3]), below 50 nM on SOS1 (setting [4]), at most 1000 nM in test [1] (setting [5]) and at most 1000 nM in test [2] (setting [7]).
In the case of `COc1nc2nc(C)nc(N[C@H](C)c3cccc(C(F)(F)C(C)(C)O)c3F)c2cc1N1CCS(=O)(=O)CC1` [Compound 169, (R)-4-(4-((1-(3-(1,1-difluoro-2-hydroxy-2-methylpropyl)-2-fluorophenyl)ethyl)amino)-7-methoxy-2-methylpyrido[2,3-d]pyrimidin-6-yl)thiomorpholine 1,1-dioxide], the IC50 was below 100 nM on SOS1 (setting [3]); below 50 nM on SOS1 (setting [4]); at most 1000 nM in test [1] (setting [5]); below 500 nM in test [1] (setting [6]); at most 1000 nM in test [2] (setting [7]); below 500 nM in test [2] (setting [8]).
For `Cc1nc(N[C@H](C)c2cccc(C(F)F)c2F)c2cc(C3(C#N)CC3)c(OC[C@@H]3CC(F)(F)CN3C)nc2n1` [Compound 296, 1-(7-(((S)-4,4-difluoro-1-methylpyrrolidin-2-yl)methoxy)-4-(((R)-1-(3-(difluoromethyl)-2-fluorophenyl)ethyl)amino)-2-methylpyrido[2,3-d]pyrimidin-6-yl)cyclopropane-1-carbonitrile], the results for the IC50 (at SOS1 (setting [3]); in test [1] (setting [5]); in test [2] (setting [7])) were below 100 nM, 1000 to 10000 nM and at most 1000 nM, respectively.
For the compound `CNCCN1CCC(c2cc3c(N[C@H](C)c4cccc(C(F)F)c4F)nc(C)nc3nc2OC)CC1` [Compound 129, (R)-N-(1-(3-(difluoromethyl)-2-fluorophenyl)ethyl)-7-methoxy-2-methyl-6-(1-(2-(methyl-12-azaneyl)ethyl)piperidin-4-yl)pyrido[2,3-d]pyrimidin-4-amine], the IC50 at SOS1 (setting [3]) is below 100 nM; at SOS1 (setting [4]), below 50 nM; in test [1] (setting [5]), at most 1000 nM; in test [2] (setting [7]) it was 1000 to 10000 nM.
Regarding `COc1nc2nc(C)nc(N[C@H](C)c3cccc(C(F)(F)C(C)(C)O)c3F)c2cc1C1CCS(=O)(=O)CC1` [Compound 321, (R)-4-(4-((1-(3-(1,1-difluoro-2-hydroxy-2-methylpropyl)-2-fluorophenyl)ethyl)amino)-7-methoxy-2-methylpyrido[2,3-d]pyrimidin-6-yl)tetrahydro-2H-thiopyran 1,1-dioxide], the IC50 was below 100 nM at SOS1 (setting [3]); below 50 nM at SOS1 (setting [4]); at most 1000 nM in test [1] (setting [5]); at most 1000 nM in test [2] (setting [7]); below 500 nM in test [2] (setting [8]).
In the case of `COc1nc2nc(C)nc(N[C@H](C)c3cccc(C(F)(F)C(C)(C)O)c3)c2cc1C1CCN(C(C)C)CC1` [Compound 212, (R)-1,1-difluoro-1-(3-(1-((6-(1-isopropylpiperidin-4-yl)-7-methoxy-2-methylpyrido[2,3-d]pyrimidin-4-yl)amino)ethyl)phenyl)-2-methylpropan-2-ol], the IC50 on SOS1 (setting [3]) is below 100 nM; at SOS1 (setting [4]) it was below 50 nM; in test [1] (setting [5]) it was at most 1000 nM; in test [1] (setting [6]), below 500 nM; in test [2] (setting [7]), at most 1000 nM; in test [2] (setting [8]), below 500 nM.
For `COc1nc2nc(C)nc(N[C@H](C)c3cccc(CC(F)F)c3F)c2cc1C1CCS(=O)(=O)CC1` [Compound 147, (R)-4-(4-((1-(3-(2,2-difluoroethyl)-2-fluorophenyl)ethyl)amino)-7-methoxy-2-methylpyrido[2,3-d]pyrimidin-6-yl)tetrahydro-2H-thiopyran 1,1-dioxide], the IC50 on SOS1 (setting [3]) was below 100 nM; on SOS1 (setting [4]), below 50 nM; in test [1] (setting [5]) it was at most 1000 nM; in test [2] (setting [7]) it was at most 1000 nM; in test [2] (setting [8]), below 500 nM.
For `COc1nc2ncnc(N[C@H](C)c3cccc(C(F)(F)F)c3C)c2cc1N1CCS(=O)(=O)CC1` [Compound 381, (R)-4-(7-methoxy-4-((1-(2-methyl-3-(trifluoromethyl)phenyl)ethyl)amino)pyrido[2,3-d]pyrimidin-6-yl) thiomorpholine 1,1-dioxide], the IC50 on SOS1 (setting [3]) is below 100 nM; at SOS1 (setting [4]), below 50 nM; in test [1] (setting [5]), at most 1000 nM; in test [1] (setting [6]) it was below 500 nM; in test [2] (setting [7]), at most 1000 nM; in test [2] (setting [8]), below 500 nM.
Take `CC(C)N1CCN(c2cc3c(N[C@H](C)c4cccc(C(F)(F)F)c4F)ncnc3nc2Cl)CC1` [Compound 394, (R)-7-chloro-N-(1-(2-fluoro-3-(trifluoromethyl)phenyl)ethyl)-6-(4-isopropylpiperazin-1-yl)pyrido[2,3-d] pyrimidin-4-amine]: the IC50 at SOS1 (setting [3]) is below 100 nM; at SOS1 (setting [4]) it was below 50 nM; in test [1] (setting [5]) it was at most 1000 nM; in test [1] (setting [6]), below 500 nM; in test [2] (setting [7]) it was at most 1000 nM; in test [2] (setting [8]) it was below 500 nM.
In the case of `COc1nc2nc(C)nc(N[C@H](C)c3cccc(C(F)(F)CCC4CN(C(C)C)C4)c3F)c2cc1C1(C#N)CC1` [Compound 176, (R)-1-(4-((1-(3-(1,1-difluoro-3-(1-isopropylazetidin-3-yl)propyl)-2-fluorophenyl)ethyl)amino)-7-methoxy-2-methylpyrido[2,3-d]pyrimidin-6-yl)cyclopropane-1-carbonitrile], the IC50 at SOS1 (setting [3]) is below 100 nM; on SOS1 (setting [4]), below 50 nM; in test [1] (setting [5]), at most 1000 nM; in test [1] (setting [6]), below 500 nM; in test [2] (setting [7]) it was at most 1000 nM; in test [2] (setting [8]) it was below 500 nM.
Turning to `COc1nc2nc(OCC3COC3)nc(N[C@H](C)c3cccc(C(F)F)c3F)c2cc1C1(C#N)CC1` [Compound 278, (R)-1-(4-((1-(3-(difluoromethyl)-2-fluorophenyl)ethyl)amino)-7-methoxy-2-(oxetan-3-ylmethoxy)pyrido [2,3-d]pyrimidin-6-yl)cyclopropane-1-carbonitrile], the values for the IC50 (on SOS1 (setting [3]); in test [1] (setting [5]); in test [2] (setting [7])) were below 100 nM, above 10000 nM and 1000 to 10000 nM, respectively.
In the case of `COc1nc2nc(C)nc(N[C@H](C)c3cccc(C(F)F)c3F)c2cc1C1CCN(C(=O)NC2COC2)CC1` [Compound 116, (R)-4-(4-((1-(3-(difluoromethyl)-2-fluorophenyl)ethyl)amino)-7-methoxy-2-methylpyrido[2,3-d]pyrimidin-6-yl)-N-(oxetan-3-yl)piperidine-1-carboxamide], the IC50 on SOS1 (setting [4]) was below 50 nM; in test [1] (setting [5]), at most 1000 nM; in test [2] (setting [7]), at most 1000 nM.
For `COc1nc2nc(C)nc(N[C@H](C)c3cccc(C(F)F)c3F)c2cc1C1CCN(C2CCOCC2)CC1` [Compound 337, (R)-N-(1-(3-(difluoromethyl)-2-fluorophenyl)ethyl)-7-methoxy-2-methyl-6-(1-(tetrahydro-2H-pyran-4-yl)piperidin-4-yl)pyrido[2,3-d]pyrimidin-4-amine], the IC50 at SOS1 (setting [3]) is below 100 nM; at SOS1 (setting [4]) it was below 50 nM; in test [1] (setting [5]), at most 1000 nM; in test [1] (setting [6]), below 500 nM; in test [2] (setting [7]), at most 1000 nM; in test [2] (setting [8]), below 500 nM.
Take `Cc1nc(N[C@H](C)c2cccc(C(F)F)c2F)c2cc(N3CCN(C)CC3)c(OCC3COC3)nc2n1` [Compound 397, (R)-N-(1-(3-(difluoromethyl)-2-fluorophenyl)ethyl)-2-methyl-6-(4-methylpiperazin-1-yl)-7-(oxetan-3-ylmethoxy)pyrido[2,3-d]pyrimidin-4-amine]: the IC50 on SOS1 (setting [3]) was below 100 nM; on SOS1 (setting [4]) it was below 50 nM; in test [1] (setting [5]), at most 1000 nM; in test [1] (setting [6]) it was below 500 nM; in test [2] (setting [7]) it was at most 1000 nM; in test [2] (setting [8]), below 500 nM.
For `C[C@@H](Nc1ncnc2nc(OCCN(C)C)c(C3CCS(=O)(=O)CC3)cc12)c1cccc(C(F)F)c1F` [Compound 251, (R)-4-(4-((1-(3-(difluoromethyl)-2-fluorophenyl)ethyl)amino)-7-(2-(dimethylamino)ethoxy)pyrido[2,3-d]pyrimidin-6-yl)tetrahydro-2H-thiopyran 1,1-dioxide], the IC50 was below 100 nM at SOS1 (setting [3]); below 50 nM on SOS1 (setting [4]); 1000 to 10000 nM in test [1] (setting [5]); at most 1000 nM in test [2] (setting [7]); below 500 nM in test [2] (setting [8]).
